# In patent US6878722B2, “Substituted cycloalkyl P1′ hepatitis C virus inhibitors” (Bristol-Myers Squibb Company, priority 2002, dated 2005):
# Where two headings read alike, the source gives them in different places.
# Assays:
# [1] = target: T1, human sputum elastase (HS) (Homo sapiens, UniProt P08246); experiment: Specificity assay, human sputum elastase; type: biochemical; details: 2 hr pre-incubation
# T1 construct: purchased Sigma
# T1 sequence (P08246 30-267): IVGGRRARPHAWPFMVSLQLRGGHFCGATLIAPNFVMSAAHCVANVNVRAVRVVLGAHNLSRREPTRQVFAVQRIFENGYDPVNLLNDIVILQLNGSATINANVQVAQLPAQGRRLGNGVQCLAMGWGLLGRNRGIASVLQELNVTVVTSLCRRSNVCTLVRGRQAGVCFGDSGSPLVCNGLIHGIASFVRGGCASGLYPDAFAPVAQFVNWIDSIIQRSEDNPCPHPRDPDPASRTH
# Method: The specificities of compounds of the present invention were determined against a variety of serine proteases: human sputum elastase (HS), porcine pancreatic elastase (PPE) and human pancreatic chymotrypsin and one cysteine protease: human liver cathepsin B. In all cases a 96-well plate format protocol using colorimetric p-nitroaniline (pNA) substrate specific for each enzyme was used as described previously (Patent WO 00/09543) with some modifications to the serine protease assays.
# Each assay included a 2 hr enzyme-inhibitor pre-incubation at room temperature followed by addition of substrate and hydrolysis to ˜30% conversion as measured on a Spectramax Pro microplate reader. Compound concentrations varied from 100 to 0.4 μM depending on their potency. […]
# The percentage of inhibition was calculated using the formula: [1−((UVinh−UVblank)/(UVctl−UVblank))]×100 […]
# [2] = system: HCV replicon in Huh7 cells; experiment: HCV replicon cell-based assay (FRET); details: Hepatitis C virus
# In short: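 Huh7 cells stably carrying a genotype 1b HCV replicon (IRES-neo-EMCV-IRES-NS3-NS5B) were treated with compound for 4 days at 37 °C in 0.5% DMSO final. Lysates containing 10 μM FRET peptide RET S1 were read kinetically at 340/490 nm to give NS3 protease activity, from which EC50 was derived.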
structure (smiles),measurement,setting,value
"C=CC1C[C@]1(NC(=O)[C@@H]1C[C@@H](Oc2cc(-c3ccccc3)nc3cc(OC)ccc23)CN1C(=O)[C@@H](NC(=O)OC(C)(C)C)C(C)(C)C)C(=O)NS(=O)(=O)C1(C)CC1 (stereo in doubt) [Compound 1, (1-{4-(7-Methoxy-2-phenylquinolin-4-yloxy)-2-[1-(1-methylcyclopropanesulfonylaminocarbonyl)-2-vinylcyclopropylcarbamoyl]pyrrolidine-1-carbonyl}-2,2-dimethylpropyl)carbamic acid tert-butyl ester]",IC50,[1],43 µM
same,EC50,"[2]; Huh-7, 96 h, Huh7 cells, 4 days, read-out: EC50 value in the replicon assay",0.0139 µM
same,EC50,"[2]; Huh-7, HCV replicon, read-out: EC50 range",< 0.05 µM
